Measured values: patent publication US20250312323A1 (Cavion, Inc., priority 2018, published 2025)

Columns and labels:
[1] = system: patients with essential tremor; test: T-CALM: QUEST questionnaire, items on anti-tremor medication; assay type: in vivo, human
[2] = system: patients with essential tremor; test: T-CALM: Patient Global Impression of Change (PGIC); assay type: in vivo, human; settings: for PGIC score (rescaled −3 to 3), LS mean (SE): ANCOVA
Excerpt: Treatment success as measured by PGIC was summarized using descriptive statistics.
The Patient Global Impression of Change (PGIC) will quantify a patient's impression of improvement or decline over time with respect to ET treatment (see, e.g., Guy, Assessment Mantal for Psychopharmacology. Rockville, MD: Department of Health, Education, and Welfare Public Health Service Alcohol, Drug Abuse, and Mental Health Administration, 1976). The patient will use the PGIC scale to assess current health status versus initiation of treatment and calculate the difference.

[3] = system: patients with essential tremor; test: T-CALM: PK/PD, Cmin exposure vs change in TETRAS-PS (Hill equation); assay type: in vivo, human; settings: steady state, estimated
Excerpt: Evaluation of the relationship between the Cmin exposure level of CX-8998 and response (E) as measured by change from baseline in TETRAS-PS using the Hill Equation: […]
Pharmacodynamic variables (Response) evaluated included change from baseline in TETRAS performance subscale, TETRAS activities of daily living, TETRAS total score.

EEG alpha power = test: Human pharmaco-EEG alpha power (Study PN001/Part II); assay type: in vivo; settings: at plasma concentrations greater than 200 to 300 nM (4 mg BID)
Excerpt: FIG. 91 contains a graph showing the analysis of awake EEG absolute power for Alpha band (Electrode site Oz, eyes closed condition) (Study PN001/Part II).
FIG. 92 contains a graph showing the pharmacokinetic/pharmacodynamic analysis of EEG Alpha power (Study PN001/Part 1). BID=twice daily; EEG=electroencephalogram; MK=CX-8998; PBO=placebo; PD=pharmacodynamic.

[4] = system: patients with essential tremor; test: T-CALM: Kinesia ONE accelerometry score; assay type: in vivo, human
Excerpt: Kinesia One platform is deployed in T-CALM as a digital marker of tremor severity. Kinesia One is FDA cleared for monitoring Parkinson's motor symptom severity with only limited data on assessment of tremor in ET patients. The algorithmically derived score was developed primarily in Parkinson's disease algorithms and has limited validation in ET (see, e.g., Hoffman et al., 2011 Conf Proc IEEE Eng Med Biol Soc. 2011:4378-81). The Kinesia One device is placed on the index finger of each ET patient and worn in the clinic after completion of the TETRAS Performance subscale. Four tasks are performed by the patient on the left and right sides to assess resting, postural, kinetic and lateral wing beating tremor. The Kinesia One score change in score from baseline to day 28 is evaluated as a secondary efficacy endpoint. The Kinesia One data is also utilized for exploratory analysis of efficacy on the change from baseline to day 15 for accelerometry score and for change from baseline on amplitude measures for days 15 and 28. Consistent finger sensor placement and consistent task execution are critical factors for valid Kinesia One scores.
(§1) Both sets of scores were statistically analyzed.

Solubility of CX-8998 = assay type: physicochemical; settings: at higher pH values
Excerpt: Sustained release (SR) beads were developed with multiple types of sustained release and enteric coatings. Some SR matrix beads were developed using typical polymers (e.g., hydroxypropyl methylcellulose or carbopol) to achieve sustained release. Some SR matrix beads were developed using pH independent sustained release osmotic pumps to achieve zero order release from the tablet. […] Some SR matrix beads were developed using Eudragit RS/RL30D coating of IR beads to achieve an approach that depends on slow erosion of coating thereby sustaining the release of the drug from an IR matrix.

[5] = system: patients with essential tremor; test: T-CALM: TETRAS performance subscale, independent video raters; assay type: in vivo, human; settings: Day 28
Excerpt: as §1

[6] = Pharmacokinetics of MR2 CX-8998 in fed versus fasted subjects; assay type: in vivo, human; settings: MR2 CX-8998, single dose 1×8 mg
Excerpt: Subjects will be screened for study eligibility within 28 days before administration of the first dose of study drug. Subjects who meet the study eligibility criteria will be admitted to the clinical research unit in the afternoon of the day before administration of the first dose of study drug (Period 1/Day −1).

SMILES: CC(C)c1ccc(CC(=O)N[C@H](C)c2ccc(OCC(F)(F)F)cn2)cc1 [CX-8998]
- QUEST: Side effect from tremor medication in past month? answer No, patients, number (%) ([1]; Day 15): 25 (64%)
- QUEST: Side effect from tremor medication in past month? answer Yes, patients, number (%) ([1]; Day 15): 14 (36%)
- QUEST: Side effect from tremor medication in past month? answer No, patients, number (%) ([1]; Day 28): 30 (77%)
- QUEST: Side effect from tremor medication in past month? answer Yes, patients, number (%) ([1]; Day 28): 7 (18%)
- PGIC Category 0 No change, patients, number (%) ([2]; Day 15): 11 (28%)
- PGIC Category 1 Minimally improved, patients, number (%) ([2]; Day 15): 17 (44%)
- PGIC Category 2 Much improved, patients, number (%) ([2]; Day 15): 8 (21%)
- PGIC Category 3 Very much improved, patients, number (%) ([2]; Day 15): 1 (3%)
- PGIC Category −1 Minimally worse, patients, number (%) ([2]; Day 15): 1 (3%)
- PGIC Category −2 Much worse, patients, number (%) ([2]; Day 15): 1 (3%)
- PGIC Category −3 Very much worse, patients, number (%) ([2]; Day 15): 0
- mean PGIC score vs placebo ([2]; Day 15): significantly greater (improved)
- PGIC Score, subjects 0 - no change, n (%) ([2]; Day 15, N = 39): 11 (28%)
- PGIC Score, subjects 1 - minimally improved, n (%) ([2]; Day 15, N = 39): 17 (44%)
- PGIC Score, subjects 2 - much improved, n (%) ([2]; Day 15, N = 39): 8 (21%)
- PGIC Score, subjects 3 - very much improved, n (%) ([2]; Day 15, N = 39): 1 (3%)
- PGIC Score, subjects −1 - minimally worse, n (%) ([2]; Day 15, N = 39): 1 (3%)
- PGIC Score, subjects −2 - much worse, n (%) ([2]; Day 15, N = 39): 1 (3%)
- PGIC Score, subjects −3 - very much worse, n (%) ([2]; Day 15, N = 39): 0
- PGIC score (rescaled −3 to 3), LS mean (SE) ([2]; Day 15): 0.9 (0.17)
- PGIC Category 0 No change, patients, number (%) ([2]; Day 28): 14 (36%)
- PGIC Category 1 Minimally improved, patients, number (%) ([2]; Day 28): 10 (26%)
- PGIC Category 2 Much improved, patients, number (%) ([2]; Day 28): 7 (18%)
- PGIC Category 3 Very much improved, patients, number (%) ([2]; Day 28): 3 (8%)
- PGIC Category −1 Minimally worse, patients, number (%) ([2]; Day 28): 1 (3%)
- PGIC Category −2 Much worse, patients, number (%) ([2]; Day 28): 1 (3%)
- PGIC Category −3 Very much worse, patients, number (%) ([2]; Day 28): 1 (3%)
- mean PGIC score vs placebo ([2]; Day 28): trended toward significant improvement
- PGIC Score, subjects 0 - no change, n (%) ([2]; Day 28, head N = 39): 14 (36%)
- PGIC Score, subjects 1 - minimally improved, n (%) ([2]; Day 28, head N = 39): 10 (26%)
- PGIC Score, subjects 2 - much improved, n (%) ([2]; Day 28, head N = 39): 7 (18%)
- PGIC Score, subjects 3 - very much improved, n (%) ([2]; Day 28, head N = 39): 3 (8%)
- PGIC Score, subjects −1 - minimally worse, n (%) ([2]; Day 28, head N = 39): 1 (3%)
- PGIC Score, subjects −2 - much worse, n (%) ([2]; Day 28, head N = 39): 1 (3%)
- PGIC Score, subjects −3 - very much worse, n (%) ([2]; Day 28, head N = 39): 1 (3%)
- PGIC score (rescaled −3 to 3), LS mean (SE) ([2]; Day 28): 0.8 (0.19)
- Emax, change from baseline in TETRAS-PS vs Cmin (Hill equation) [3]: approximately −4.1
- reduction of EEG alpha power (EEG alpha power): ≥ 25%
- Kinesia ONE Total Score change from baseline, LS mean difference from placebo (95% CI) ([4]; Day 15, ANCOVA): −0.4 (−1.7, 0.9)
- Kinesia ONE score, difference vs placebo ([4]; Day 15 and Day 28): did not show a significant difference
- solubility (Solubility of CX-8998): poor solubility
- LS mean (±SE) change from baseline in TETRAS-PS scored by independent video raters (primary endpoint) [5]: −1.8±0.81
- effect of fed state on overall exposure as measured by AUC [6]: does not appear to significantly impact overall exposure
- effect of fed vs fasted state on early absorption [6]: impacts early absorption
- effect of fed vs fasted state on late absorption [6]: does not appear to significantly impact late absorption
